Source: patent publication US12414918B2, “Pharmaceutical composition of lipid nanoparticle for delivering nucleic acid drug containing trehalose derivative and novel structure-maintaining lipid compound” (SML BIOPHARM CO., LTD., priority 2021, dated 2025)

Tested on: Renilla luciferase (R/L) expression
Assay: Evaluation of delivery efficiency by detection of protein expression level (R/L mRNA-LNP injected intradermally into mouse ear, luminescence of ear lysate)
Assay type: in vivo, ICR mice
Conditions: ionizable lipid:trehalose-based lipid:DOPE:cholesterol (or substitute):DMG-PEG 25:25:10:38.5:1.5
Procedure: An RNA platform in which a nucleic acid sequence encoding Renilla luciferase (R/L), which has an IRES element derived from encephalomyocarditis virus (EMCV) and is a known reporter gene, was inserted as a target sequence was constructed. The template DNA was designed and the nucleic acid molecule of the single-stranded RNA platform was constructed using an IVT procedure.
Lipid nanoparticles were prepared from 0.625 mg/mL of an RNA solution (50 mM sodium citrate buffer, 110 mM NaCl, pH=4.0) and a lipid-mixture solution (ethanol) using a laboratory mixer and emulsifier (NanoAssembir Spark, Precision NanoSystems) and subjected to solvent conversion with physiological saline using a filter tube for centrifugation (UFC5010, Amicon). […]
The experiment was performed according to the following procedure. […] R/L, which was actually tested, expression, and maintenance were detected at two points of time: after 6 hours and 24 hours.
Each mouse was anesthetized using a respiratory anesthetic, and a drug that satisfied the experimental conditions was injected into the mouse through an insulin syringe. […] Then, 20 μl of the mixture was transferred to a white 96-well plate, 100 μl of Renilla luciferase assay substrate from Promega Corporation was added thereto, and luminescence was measured to compare expression.

CCCCOC(=O)CC[C@H](C)[C@H]1CC[C@H]2[C@@H]3CC[C@@H]4C[C@H](O)CC[C@]4(C)[C@H]3CC[C@]12C [Formula 4]
usability as cholesterol substitute in lipid nanoparticles: appropriate cholesterol substitutes

CCC(C)CCOC(=O)CC[C@H](C)[C@H]1CC[C@H]2[C@@H]3CC[C@@H]4C[C@H](O)CC[C@]4(C)[C@H]3CC[C@]12C (some centres unmarked) [Formula 5]
usability as cholesterol substitute in lipid nanoparticles: appropriate cholesterol substitutes
